Results published in patent US4892875A, “Substituted heterocyclylalkyl esters of 1,4-dihydropyridine-3,5-dicarboxylic acids” (Takeda Chemical Industries, Ltd., priority 1982, dated 1990).

Tested on: spontaneously hypertensive rats
Assay: Antihypertensive action (systolic blood pressure, caudal artery) in male spontaneously hypertensive rats
Assay type: in vivo, rat
Conditions: 10 mg/kg oral; for Change in blood pressure 1 hr. after treatment / Change in blood pressure 5 hrs. after treatment: after minus before medication, * P < 0.05 vs control; for Duration of antihypertensive effect: measured 1, 5, 8 and 24 hours after administration
Protocol: Male spontaneously hypertensive rats aged 10 to 11 weeks were used (in groups of 3 to 6 individuals). […] Each test compound was suspended in a 5% solution of gum arabic and orally administered. The dosage was 10 mg/kg for all compounds. Animals in a control group was given the above solution of gum arabic only.

| SMILES | Change in blood pressure 1 hr. after treatment [mmHg] | Change in blood pressure 5 hrs. after treatment [mmHg] | Duration of antihypertensive effect |
| --- | --- | --- | --- |
| CCOC(=O)C1=C(C)NC(C)=C(C(=O)OCCN2CCN(c3ccc(F)cc3)CC2)C1c1cccc([N+](=O)[O-])c1 (stereo not drawn) [Example 41, ethyl 2-[4-(4-fluorophenyl)-1-piperazinyl]ethyl 2,6-dimethyl-4-(3-nitrophenyl)-1,4-dihydropyridine-3,5-dicarboxylate] | -55 | -67 | ca. 24 hrs. |
| COC(=O)C1=C(C)NC(C)=C(C(=O)OCCN2CCN(c3ccc(F)cc3)CC2)C1c1cccc(Cl)c1Cl (stereo not drawn) [Example 43, 2-[4-(4-fluorophenyl)-1-piperazinyl]ethyl methyl 4-(2,3-dichlorophenyl)-2,6-dimethyl-1,4-dihydropyridine-3,5-dicarboxylate] | -54 | -44 | 8 to 24 h |
| COC(=O)C1=C(C)NC(C)=C(C(=O)OCCN2CCN(c3ccccc3Cl)CC2)C1c1cccc([N+](=O)[O-])c1 (stereo not drawn) [Example 44, 2-[4-(2-chlorophenyl)-1-piperazinyl]ethyl methyl 2,6-dimethyl-4-(3-nitrophenyl)-1,4-dihydropyridine-3,5-dicarboxylate] | -44 | -22 | 8 to 24 h |
| COC(=O)C1=C(C)NC(C)=C(C(=O)OCCN2CCN(c3ccc(Cl)cc3)CC2)C1c1cccc([N+](=O)[O-])c1 (stereo not drawn) [Example 45, 2-[4-(4-chlorophenyl)-1-piperazinyl]ethyl methyl 2,6-dimethyl-4-(3-nitrophenyl)-1,4-dihydropyridine-3,5-dicarboxylate] | -57 | -42 | 8 to 24 h |
| COC(=O)C1=C(C)NC(C)=C(C(=O)OCCN2CCN(c3cccc(Cl)c3)CC2)C1c1cccc(Cl)c1Cl (stereo not drawn) [Example 46] | -44 | -43 | 8 to 24 h |
| COC(=O)C1=C(C)NC(C)=C(C(=O)OCCN2CCN(c3ccc(Cl)cc3)CC2)C1c1cccc(Cl)c1 (stereo not drawn) [Example 50, 2-[4-(4-chlorophenyl)-1-piperazinyl]ethyl methyl 4-(3-chlorophenyl)-2,6-dimethyl-1,4-dihydropyridine-3,5-dicarboxylate] | -58 | -37 | 8 to 24 h |
| COC(=O)C1=C(C)NC(C)=C(C(=O)OCCN2CCN(c3ccccc3C)CC2)C1c1cccc([N+](=O)[O-])c1 (stereo not drawn) [Example 51, methyl 2-[4-(2-methylphenyl)-1-piperazinyl]ethyl 2,6-dimethyl-4-(3-nitrophenyl)-1,4-dihydropyridine-3,5-dicarboxylate] | -69 | -54 | 8 to 24 h |
| COC(=O)C1=C(C)NC(C)=C(C(=O)OCCN2CCN(c3ccccc3C)CC2)C1c1cccc(Cl)c1 (stereo not drawn) [Example 52, methyl 2-[4-(2-methylphenyl)-1-piperazinyl]ethyl 4-(3-chlorophenyl)-2,6-dimethyl-1,4-dihydropyridine-3,5-dicarboxylate] | -54 | -14 | ca. 8 hrs. |
